Measurements as given in US8030498B2, “Benzoylpyrazole compounds and herbicides containing them” (Ishihara Sangyo Kaisha, Ltd., priority 2005, dated 2011).

Legend:
corn (Zea mays L.) = assay: Test Example 1: foliar treatment, growth inhibition rate, corn; type: in vivo; details: visually observed 17th to 23rd day after application
Description: (§1) Upland field soil was put into a 1/170,000 hectare pot, and seeds of various plants were sown. When the respective plants reached predetermined leaf stage ((1) barnyardgrass (Echinochloa crus-galli L.); 0.8 to 2.5 leaf stage, (2) crabgrass (Digitaria sanguinalis L.): 0.5 to 3.0 leaf stage, (3) greenfoxtail (Setaria viridis L.): 1.0 to 3.0 leaf stage, (4) redroot pigweed (Amaranthus retroflexus L.): cotyledon stage to 2.0 leaf stage, (5) prickly sida (Sida spinosa L.): cotyledon stage to 1.1 leaf stage, (6) velvetleaf (Abutilon theophrasti MEDIC.): cotyledon stage to 1.5 leaf stage, (7) rice (Oryza sativa L.): 1.0 to 2.5 leaf stage, (8) wheat (Triticum spp.): 1.7 to 3.4 leaf stage, (9) corn (Zea mays L.): 2.0 to 3.5 leaf stage, and (10) soybean (Glycine max Merr.): primary leaf stage to 0.3 leaf stage), wettable powders or emulsifiable concentrates of the compounds of the present invention prepared in accordance with a conventional preparation method, were weighed so that the active ingredients became the prescribed amounts, and diluted with water in an amount corresponding to 500 liter per 1 hectare. 0.1 vol % of an agricultural spreader was further added to the respective diluted liquids, followed by foliar treatment with a small sprayer.
(§2) On the 17th to 23rd day after application, the state of growth of the respective plants was visually observed, and the herbicidal effect was evaluated in accordance with a growth inhibition rate (%) of 0 (equivalent to the non-treated area) to 100% (complete kill).

[1] = system: soybean (Glycine max Merr.); assay: Test Example 1: foliar treatment, growth inhibition rate, soybean; type: in vivo; details: visually observed 17th to 23rd day after application
Description: as §1, §2

[2] = system: velvetleaf (Abutilon theophrasti MEDIC.); assay: Test Example 1: foliar treatment, growth inhibition rate, velvetleaf; type: in vivo; details: visually observed 17th to 23rd day after application
Description: as §1, §2

[3] = system: barnyardgrass (Echinochloa crus-galli L.); assay: Test Example 1: foliar treatment, growth inhibition rate, barnyardgrass; type: in vivo; details: visually observed 17th to 23rd day after application
Description: as §1, §2

[4] = system: redroot pigweed (Amaranthus retroflexus L.); assay: Test Example 1: foliar treatment, growth inhibition rate, redroot pigweed; type: in vivo; details: visually observed 17th to 23rd day after application
Description: as §1, §2

[5] = system: prickly sida (Sida spinosa L.); assay: Test Example 1: foliar treatment, growth inhibition rate, prickly sida; type: in vivo; details: visually observed 17th to 23rd day after application
Description: as §1, §2

[6] = system: greenfoxtail (Setaria viridis L.); assay: Test Example 1: foliar treatment, growth inhibition rate, greenfoxtail; type: in vivo; details: visually observed 17th to 23rd day after application
Description: as §1, §2

rice (Oryza sativa L.) = assay: Test Example 1: foliar treatment, growth inhibition rate, rice; type: in vivo; details: visually observed 17th to 23rd day after application
Description: as §1, §2

[7] = system: crabgrass (Digitaria sanguinalis L.); assay: Test Example 1: foliar treatment, growth inhibition rate, crabgrass; type: in vivo; details: visually observed 17th to 23rd day after application
Description: as §1, §2

wheat (Triticum spp.) = assay: Test Example 1: foliar treatment, growth inhibition rate, wheat; type: in vivo; details: visually observed 17th to 23rd day after application
Description: as §1, §2

velvetleaf = assay: Test Example 2: soil application on the day after sowing, growth inhibition rate, velvetleaf; type: in vivo, Abutilon theophrasti MEDIC.; details: 250 g/ha active ingredient, observed on 19th to 24th day
Description: (§3) Upland field soil was put into a 1/170,000 hectare pot, and seeds of various plants (barnyardgrass, crabgrass, greenfoxtail, redroot pigweed, prickly sida, velvetleaf, rice, wheat, corn and soybean) were sown. On the day after sowing, wettable powders or emulsifiable concentrates of the compounds of the present invention prepared in accordance with a conventional preparation method, were weighed so that the active ingredients became the prescribed amounts, and diluted with water in an amount corresponding to 500 liter per 1 hectare, followed by soil application with a small sprayer. On the 19th to 24th day after the application, the state of growth of the respective plants was visually observed, and the herbicidal effect was evaluated in accordance with a growth inhibition rate (%) of from 0 (equivalent to the non-treated area) to 100% (complete kill).

redroot pigweed = assay: Test Example 2: soil application on the day after sowing, growth inhibition rate, redroot pigweed; type: in vivo, Amaranthus retroflexus L.; details: 250 g/ha active ingredient, observed on 19th to 24th day
Description: as §3

crabgrass = assay: Test Example 2: soil application on the day after sowing, growth inhibition rate, crabgrass; type: in vivo, Digitaria sanguinalis L.; details: 250 g/ha active ingredient, observed on 19th to 24th day
Description: as §3

corn = assay: Test Example 2: soil application on the day after sowing, growth inhibition rate, corn; type: in vivo, Zea mays L.; details: 250 g/ha active ingredient, observed on 19th to 24th day
Description: as §3

Compound	Growth inhibition rate (%) Corn (corn (Zea mays L.); 63 g/ha active ingredient) [%]	Growth inhibition rate (%) Soybean ([1]; 63 g/ha active ingredient) [%]	Growth inhibition rate (%) Velvetleaf ([2]; 63 g/ha active ingredient) [%]	Growth inhibition rate (%) Barnyardgrass ([3]; 63 g/ha active ingredient) [%]	Growth inhibition rate (%) redroot pigweed ([4]; 63 g/ha active ingredient) [%]	Growth inhibition rate (%) Prickly sida ([5]; 63 g/ha active ingredient) [%]	Growth inhibition rate (%) Greenfoxtail ([6]; 63 g/ha active ingredient) [%]	Growth inhibition rate (%) Rice (rice (Oryza sativa L.); 63 g/ha active ingredient) [%]	Growth inhibition rate (%) Crabgrass ([7]; 63 g/ha active ingredient) [%]	Growth inhibition rate (%) Wheat (wheat (Triticum spp.); 63 g/ha active ingredient) [%]	Growth inhibition rate (%) Corn (corn (Zea mays L.); 31 g/ha active ingredient) [%]	Growth inhibition rate (%) Soybean ([1]; 31 g/ha active ingredient) [%]	Growth inhibition rate (%) Velvetleaf ([2]; 31 g/ha active ingredient) [%]	Growth inhibition rate (%) Barnyardgrass ([3]; 31 g/ha active ingredient) [%]	Growth inhibition rate (%) redroot pigweed ([4]; 31 g/ha active ingredient) [%]	Growth inhibition rate (%) Prickly sida ([5]; 31 g/ha active ingredient) [%]	Growth inhibition rate (%) Greenfoxtail ([6]; 31 g/ha active ingredient) [%]	Growth inhibition rate (%) Rice (rice (Oryza sativa L.); 31 g/ha active ingredient) [%]	Growth inhibition rate (%) Crabgrass ([7]; 31 g/ha active ingredient) [%]	Growth inhibition rate (%) Wheat (wheat (Triticum spp.); 31 g/ha active ingredient) [%]	further results
CCSC(=O)Oc1c(C(=O)c2ccc(S(C)(=O)=O)c(C=CC#N)c2C)cnn1C [compound 229]	60	98	100	100	100	98	100	95	100	50											
CCSC(=O)Oc1c(C(=O)c2ccc(S(C)(=O)=O)c(OCCCl)c2C)cnn1C [compound 78]											0	70	65	60	60	60	60	10	70	0	Growth inhibition rate (%) Velvetleaf (velvetleaf): 50%; Growth inhibition rate (%) redroot pigweed (redroot pigweed): 80%; Growth inhibition rate (%) Crabgrass (crabgrass): 95%; Growth inhibition rate (%) Corn (corn): 0%
CCSC(=O)Oc1c(C(=O)c2ccc(S(C)(=O)=O)c(CCC#N)c2C)cnn1C [compound 230]	0	100	95	100	100	80	100	95	100	40											
C=C(C)CSC(=O)Oc1c(C(=O)c2ccc(S(C)(=O)=O)c(C(=O)OC)c2C)cnn1CC [compound 101]											30	90	98	100	100	70	100	98	100	10	
CCSC(=O)Oc1c(C(=O)c2ccc(S(C)(=O)=O)c(CCCOC)c2C)cnn1C [compound 226]											0	100	80	100	95	70	95	100	95	0	
CCC(C)SC(=O)Oc1c(C(=O)c2ccc(S(C)(=O)=O)c(OCCOC)c2C)cnn1C (centres unmarked) [compound 239]											0	100	100	98		80	100	85	100		
CCOCCOc1c(S(C)(=O)=O)ccc(C(=O)c2cnn(C)c2OC(=O)SCC)c1C [compound 77]											10	95	80	98	95	70	98	70	98	0	Growth inhibition rate (%) Velvetleaf (velvetleaf): 40%; Growth inhibition rate (%) redroot pigweed (redroot pigweed): 90%; Growth inhibition rate (%) Crabgrass (crabgrass): 95%; Growth inhibition rate (%) Corn (corn): 0%
COCCOc1c(S(C)(=O)=O)ccc(C(=O)c2cnn(C)c2OC(=O)SC(C)(C)C)c1C [compound 241]											0	100	100	100	100	90	100	90	98		
CCSC(=O)Oc1c(C(=O)c2ccc(S(C)(=O)=O)c(Cl)c2C)cnn1CC [compound 71]											0	60	60	70	70	60	60	60	40	10	
CCSC(=O)Oc1c(C(=O)c2ccc(S(C)(=O)=O)c(CN(CC#N)C(=O)SCC)c2C)cnn1C [compound 228]	0	80	70	98	40	40	40	0	60	0											
CCSC(=O)Oc1c(C(=O)c2ccc(S(C)(=O)=O)c(CC(N)=S)c2C)cnn1C [compound 232]	0	90	90	90		70	95	95	95	0											
CCSC(=O)Oc1c(C(=O)c2ccc(S(C)(=O)=O)c(OCC3OCCO3)c2Cl)cnn1CC [compound 227]	0	95	100	100	100	60	100	30	100	0											
CCSC(=O)Oc1c(C(=O)c2ccc(S(C)(=O)=O)c(CC3OCCO3)c2C)cnn1C [compound 238]	0	98	100	100	100	98	98	90	98	10											
